# According to patent US20010036949A1, “Pharmaceutical composition and method of treatment of diseases of cognitive dysfunction in a mammal” (priority 2000, published 2001):
# Experiments:
# human m2 receptor = target: T1, human m2 receptor (Homo sapiens, UniProt P08172); test: Inhibition of forskolin-stimulated cAMP accumulation, m2 receptor; type: cell-based; conditions: standard agonist, typical value, 5 uM forskolin
# T1 sequence (P08172 1-466): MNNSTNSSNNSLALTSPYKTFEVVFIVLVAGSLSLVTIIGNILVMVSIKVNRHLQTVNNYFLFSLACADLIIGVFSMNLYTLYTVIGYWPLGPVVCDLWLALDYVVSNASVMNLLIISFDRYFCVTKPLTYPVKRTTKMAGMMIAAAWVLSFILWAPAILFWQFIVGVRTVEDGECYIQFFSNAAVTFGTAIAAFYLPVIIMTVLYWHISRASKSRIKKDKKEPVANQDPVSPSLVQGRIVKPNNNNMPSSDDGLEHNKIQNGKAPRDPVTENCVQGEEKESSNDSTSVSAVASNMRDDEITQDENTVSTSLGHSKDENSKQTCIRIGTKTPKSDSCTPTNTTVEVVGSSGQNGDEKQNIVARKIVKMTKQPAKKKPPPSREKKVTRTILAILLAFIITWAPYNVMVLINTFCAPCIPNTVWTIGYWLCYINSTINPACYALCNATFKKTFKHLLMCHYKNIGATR
# Experimental: (§1) The activity of muscarinic receptors can be determined according to the following protocol. Chinese hamster ovary cells (CHO-K1) stably transformed to express human m1-m5_receptors can be obtained from Dr. Tom Bonner (Laboratory of Cell Biology, National Institute of Mental Health, Building 36, Rm 3A-17, National Institute of Health, Bethesda, Md. 20892). Cells are maintained in Dulbecco's Modified Eagle Medium containing 10% fetal calf serum and harvested at confluence by brief incubation in Ca++/Mg++_free phosphate-buffered saline containing 4 mM EDTA.
# (§2) Functional responses at m2 and m4 receptors can be determined by measuring inhibition of forskolin-stimulated cAMP accumulation. Harvested cells are preincubated (15 minutes at 20-22° C.) with 3-isobutyl-1-methyl-xanthine ([…]; 0.2 mM) and then incubated (10 minutes at 20-22° C.) in a HEPES-buffered Krebs solution with test compounds in the presence of 5 uM forskolin. The reaction is stopped by the addition of 10N acetic acid and the CAMP content of dried supernatants is determined using a scintillation proximity assay (Amersham).
# human m4 receptor = target: T2, human m4 receptor (Homo sapiens, UniProt P08173); test: Inhibition of forskolin-stimulated cAMP accumulation, m4 receptor; type: cell-based; conditions: standard agonist, typical value, 5 uM forskolin
# T2 construct: host or cells: CHO-K1
# T2 sequence (P08173 1-479): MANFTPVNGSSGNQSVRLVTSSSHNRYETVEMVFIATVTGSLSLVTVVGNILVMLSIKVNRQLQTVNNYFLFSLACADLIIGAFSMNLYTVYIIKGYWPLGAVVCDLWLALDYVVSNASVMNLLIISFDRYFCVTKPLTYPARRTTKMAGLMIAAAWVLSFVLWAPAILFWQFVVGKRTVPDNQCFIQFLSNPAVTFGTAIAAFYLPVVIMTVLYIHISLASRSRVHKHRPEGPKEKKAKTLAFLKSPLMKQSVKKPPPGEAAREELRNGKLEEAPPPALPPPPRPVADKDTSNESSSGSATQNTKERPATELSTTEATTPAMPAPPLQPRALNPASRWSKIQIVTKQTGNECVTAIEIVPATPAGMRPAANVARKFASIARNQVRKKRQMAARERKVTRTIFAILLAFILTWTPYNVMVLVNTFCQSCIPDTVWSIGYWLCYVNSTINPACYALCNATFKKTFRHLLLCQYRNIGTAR
# Experimental: as §1, §2
compound,measurement,setting,value
C[N+](C)(C)CCOC(N)=O [Carbachol],inhibition of the forskolin-stimulated cAMP levels,human m2 receptor,60-80%
same,inhibition of the forskolin-stimulated cAMP levels,human m4 receptor,60-80%
